Where “and” joins values, the source holds several entries; their conditions need not be identical. Identical values can stand only once. Like-named read-outs stand apart in the source and are kept apart here. Values belong to the compound of their own block, whether it stands above or below them.
Columns and labels:
[1] = target: T1, human insulin receptor (Homo sapiens, UniProt P06213); assay: Insulin receptor activation assay (CHO cells overexpressing human insulin receptor, Ab-3 capture, tyrosine kinase activity); assay type: cell-based; settings: for % activation, tyrosine kinase activity compared to 10 nM insulin stimulation (Study 1) / % activation, tyrosine kinase activity compared to 10 nM insulin stimulation (Study 2): test concentration 100 μM; for Study 1, cpm, phosphoryl incorporation by tyrosine kinase activities / Study 2, cpm, phosphoryl incorporation by tyrosine kinase activities: hydroxyfuroic acid compounds 100 μM, insulin 10 nM
T1 construct: expressed in transfected cells; host or cells: CHO cells (gift of Dr. Richard Roth, Stanford University)
Procedure: The insulin receptor activation assay is based on the assay described by Zhang et al. with minor modifications. Briefly, approximately 100,000 CHO cells overexpressing human recombinant insulin receptor were suspended in 100 μl of Ham's F-12 medium containing 10% fetal bovine serum (FBS) and seeded into each well of a 96-well plate. Cells were incubated at 37°C with 5% CO2 aeration overnight. CHO cells were rinsed with phosphate buffered saline (PBS) 3 times and starved in serum free Ham's F-12 medium for 2 hours before being stimulated with desired concentration of insulin or test compound for 20 minutes. Test compounds were predissolved in DMSO as 100× stocks and serially diluted when necessary. Stimulated CHO cells were then rinsed 3 times with PBS and lysed in 60 μl of lysis buffer. Fifty μl of the lysate was transferred to a well on a Flexible Assay Plate that was precoated with Ab-3 antibody recognizing the β-subunit of insulin receptor. The well was then rinsed 3 times with Tris buffered saline (TBS) containing 0.1% Tween20 and thrown dried by hand before 10 μl of tyrosine kinase reaction mixture (50 mM HEPES, pH7.4, 5 mM MgCl2, 5 mM MnCl2, 1 mg/mL polyGlu/Tyr and 250,000 cpm γ-P^33 ATP/well) was added. The reaction was carried out at 25°C for 40 minutes and terminated by adding 50 μl ice cold 100 mM phosphoric acid. Fifty μl of the stopped reaction mixture was then transferred to an inch square P81 paper. The P81 paper was air dried and then rinsed in Millipore water 5 times to remove leftover radioactive ATP and product ADP. Five mL of scintillation cocktail was added to the paper before the count was read in a liquid scintillation counter.
(§1) The 50% effective or inhibition concentrations were determined with the standard curve analysis of SigmaPlot 8.02. The nonlinear regression equation is y = min+(max-min)/(1+(x/EC50)^Hill Slope) where y is the observed responses; x is the dose concentrations; max and min are approximated by the program automatically during the calculation.
To validate the insulin receptor activation assay, dose response curve of bovine insulin was determined. […] In subsequent experiments, we routinely included 1, 10, and 100 nM insulin as standard reference. […] For simplicity, the efficacies of hydroxyfuroic acid compounds were expressed as percentage of activities comparing to the response provided by 10 nM insulin stimulation in parallel. To distinguish human insulin receptor kinase from other tyrosine kinases in CHO cells, Ab-3, a human insulin receptor β-subunit specific monoclonal antibody, was used to absorb insulin receptor from the CHO cell lysate, so the radioactivity catalyzed by captured tyrosine kinase is attributable to insulin receptor tyrosine kinase activity.

[2] = target: T2, Recombinant human IGF-1 receptor (Homo sapiens, UniProt P08069); assay: IGF-1 receptor tyrosine kinase activity assay; assay type: biochemical; settings: mid μM of compound, Fig. 6A
T2 construct: purchased R&D systems (Minneapolis, MN)
T2 sequence (P08069 31-1367): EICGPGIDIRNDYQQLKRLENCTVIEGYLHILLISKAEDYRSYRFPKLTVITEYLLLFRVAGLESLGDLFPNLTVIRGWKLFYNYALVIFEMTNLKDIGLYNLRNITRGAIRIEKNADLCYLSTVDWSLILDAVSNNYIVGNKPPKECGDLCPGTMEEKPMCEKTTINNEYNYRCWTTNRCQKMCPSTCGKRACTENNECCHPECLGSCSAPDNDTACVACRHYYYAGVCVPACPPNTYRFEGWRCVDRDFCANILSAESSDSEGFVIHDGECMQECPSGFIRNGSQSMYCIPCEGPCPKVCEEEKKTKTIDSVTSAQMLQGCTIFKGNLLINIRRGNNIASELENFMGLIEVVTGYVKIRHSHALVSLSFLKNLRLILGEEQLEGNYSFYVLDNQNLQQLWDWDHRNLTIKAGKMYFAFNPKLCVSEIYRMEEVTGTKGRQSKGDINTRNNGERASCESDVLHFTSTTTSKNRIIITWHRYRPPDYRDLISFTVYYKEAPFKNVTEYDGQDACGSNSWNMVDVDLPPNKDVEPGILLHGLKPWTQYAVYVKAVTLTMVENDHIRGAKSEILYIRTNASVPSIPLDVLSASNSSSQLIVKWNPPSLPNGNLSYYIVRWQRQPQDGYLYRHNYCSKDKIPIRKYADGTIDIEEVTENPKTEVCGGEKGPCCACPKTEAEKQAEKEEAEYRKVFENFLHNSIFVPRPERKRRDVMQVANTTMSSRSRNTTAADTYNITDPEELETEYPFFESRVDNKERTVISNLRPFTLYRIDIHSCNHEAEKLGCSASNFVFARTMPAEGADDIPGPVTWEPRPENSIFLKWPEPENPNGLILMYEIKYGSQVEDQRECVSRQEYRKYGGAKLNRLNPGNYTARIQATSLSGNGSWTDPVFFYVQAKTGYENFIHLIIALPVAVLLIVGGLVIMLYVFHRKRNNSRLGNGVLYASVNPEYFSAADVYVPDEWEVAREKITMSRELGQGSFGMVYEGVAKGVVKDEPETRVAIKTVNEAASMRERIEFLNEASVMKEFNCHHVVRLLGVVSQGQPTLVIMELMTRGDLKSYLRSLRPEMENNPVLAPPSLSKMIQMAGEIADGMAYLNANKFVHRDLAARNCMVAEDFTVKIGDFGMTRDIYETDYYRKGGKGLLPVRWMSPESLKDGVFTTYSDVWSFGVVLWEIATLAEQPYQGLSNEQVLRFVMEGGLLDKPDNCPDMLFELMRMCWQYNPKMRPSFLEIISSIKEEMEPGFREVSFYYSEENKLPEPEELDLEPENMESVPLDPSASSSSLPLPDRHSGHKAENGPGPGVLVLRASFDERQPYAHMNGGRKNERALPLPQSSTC
Procedure: The reaction was carried out at pH7.0 in the presence of 50 mM HEPES, 5 mM MgCl2, 0.01 μg/μl polyGlu/Tyr substrate, 5 mM DTT, 250,000 cpm radioactive ATP, and 0.4 ng/μl IGF-1R tyrosine kinase with a final volume of 100 μl at 37°C for 10 minutes. The IGF-1 receptor tyrosine kinase reaction was carried out with subsaturating concentrations of substrates for better sensitivity to activator or inhibitor influence. Test compound D-410639 was predissolved in DMSO as 20× stock. The reaction was stopped by the addition of 100 μl of 25 mM EDTA (pH8), and 85 μl of the stopped reaction mix was blotted on an inch square P81 paper. P81 paper was air dried before rinsed 5 times in Millipore water to remove non-protein phosphorus. Five mL scintillation cocktail was added to the P81 paper before the counts were read with a liquid scintillation counter.
as §1

[3] = target: T3, EGF receptor (ErbB1) (Homo sapiens, UniProt P00533); assay: EGF receptor (ErbB1) tyrosine kinase activity assay; assay type: biochemical; settings: Fig. 6B
T3 construct: purchased R&D systems (Minneapolis, MN)
T3 sequence (P00533 25-1210): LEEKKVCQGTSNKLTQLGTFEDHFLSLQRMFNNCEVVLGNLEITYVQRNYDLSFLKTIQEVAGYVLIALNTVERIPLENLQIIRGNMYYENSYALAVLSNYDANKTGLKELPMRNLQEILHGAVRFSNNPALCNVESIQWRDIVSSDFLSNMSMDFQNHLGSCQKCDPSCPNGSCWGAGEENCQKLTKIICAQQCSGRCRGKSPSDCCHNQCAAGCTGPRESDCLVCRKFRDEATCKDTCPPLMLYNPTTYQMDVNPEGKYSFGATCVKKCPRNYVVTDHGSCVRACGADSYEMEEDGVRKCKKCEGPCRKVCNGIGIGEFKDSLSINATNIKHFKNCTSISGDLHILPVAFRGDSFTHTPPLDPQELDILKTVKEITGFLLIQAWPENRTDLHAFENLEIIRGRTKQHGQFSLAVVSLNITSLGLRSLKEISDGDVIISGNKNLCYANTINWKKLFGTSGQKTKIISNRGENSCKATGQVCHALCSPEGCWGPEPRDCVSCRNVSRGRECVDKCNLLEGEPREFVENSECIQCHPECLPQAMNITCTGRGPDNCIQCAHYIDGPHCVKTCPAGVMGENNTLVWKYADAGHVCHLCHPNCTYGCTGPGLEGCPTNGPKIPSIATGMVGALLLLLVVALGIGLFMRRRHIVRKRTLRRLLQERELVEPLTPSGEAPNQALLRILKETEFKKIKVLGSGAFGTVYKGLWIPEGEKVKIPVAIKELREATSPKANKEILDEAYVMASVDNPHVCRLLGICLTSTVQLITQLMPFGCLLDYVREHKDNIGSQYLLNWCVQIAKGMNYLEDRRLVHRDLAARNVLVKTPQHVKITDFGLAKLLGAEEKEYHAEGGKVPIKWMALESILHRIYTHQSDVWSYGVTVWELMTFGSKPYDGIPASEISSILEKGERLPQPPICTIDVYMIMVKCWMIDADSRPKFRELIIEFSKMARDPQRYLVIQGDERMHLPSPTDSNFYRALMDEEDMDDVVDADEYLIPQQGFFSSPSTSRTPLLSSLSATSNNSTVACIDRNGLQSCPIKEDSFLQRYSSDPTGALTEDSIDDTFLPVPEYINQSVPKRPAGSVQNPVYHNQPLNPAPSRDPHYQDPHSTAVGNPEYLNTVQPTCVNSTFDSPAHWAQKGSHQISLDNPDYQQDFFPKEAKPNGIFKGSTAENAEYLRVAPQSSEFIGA
Procedure: The reaction condition of EGF receptor (ErbB1) was similar to that of IGF-1 receptor reaction except 0.04 μg/μl polyGlu/Tyr substrate and 0.3 ng/μl EGF receptor (ErbB1) were used, and the reaction time was 15 minutes. All other conditions or processes were the same. The EGF receptor tyrosine kinase reaction was carried out with subsaturating concentrations of substrates for better sensitivity to activator or inhibitor influence.
as §1

[4] = target: T4, FGF receptor 3 (Homo sapiens, UniProt P22607); assay: FGF receptor 3 tyrosine kinase activity assay; assay type: biochemical; settings: Fig. 6C
T4 construct: purchased R&D systems (Minneapolis, MN)
T4 sequence (P22607 23-806): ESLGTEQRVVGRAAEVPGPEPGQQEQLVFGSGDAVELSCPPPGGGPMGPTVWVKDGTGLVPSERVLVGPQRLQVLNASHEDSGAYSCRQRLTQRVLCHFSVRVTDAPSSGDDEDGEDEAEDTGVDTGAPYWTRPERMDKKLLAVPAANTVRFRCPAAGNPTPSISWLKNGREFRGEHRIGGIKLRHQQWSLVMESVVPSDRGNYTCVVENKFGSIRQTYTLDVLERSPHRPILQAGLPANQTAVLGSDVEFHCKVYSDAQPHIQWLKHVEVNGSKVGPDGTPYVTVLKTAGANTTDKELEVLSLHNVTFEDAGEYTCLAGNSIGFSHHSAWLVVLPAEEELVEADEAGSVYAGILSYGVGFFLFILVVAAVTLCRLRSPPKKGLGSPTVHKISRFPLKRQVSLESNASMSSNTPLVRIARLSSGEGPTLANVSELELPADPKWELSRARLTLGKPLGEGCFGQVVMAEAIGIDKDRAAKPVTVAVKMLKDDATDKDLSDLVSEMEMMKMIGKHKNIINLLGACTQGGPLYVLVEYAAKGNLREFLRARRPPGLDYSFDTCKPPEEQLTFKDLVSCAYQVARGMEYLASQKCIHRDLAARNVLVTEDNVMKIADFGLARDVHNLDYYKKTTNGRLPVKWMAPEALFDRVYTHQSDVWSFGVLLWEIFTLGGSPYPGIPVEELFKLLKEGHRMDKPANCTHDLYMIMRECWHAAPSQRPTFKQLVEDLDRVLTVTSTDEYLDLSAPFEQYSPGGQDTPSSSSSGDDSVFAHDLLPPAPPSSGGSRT
Procedure: The reaction condition of FGF receptor 3 was similar to that of EGF receptor except 0.1 μg/μl polyGlu/Tyr substrate and 0.05 ng/μl FGF-receptor 3 were used instead. All other conditions or processes were the same. The FGF receptor 3 tyrosine kinase reaction was carried out with subsaturating concentrations of substrates for better sensitivity to activator or inhibitor influence.
as §1

[5] = in vitro; assay type: cell-based; settings: Chinese hamster, LC50, cytotoxicity
Procedure: (§2) Approximately 5,000 CHO cells suspended in 100 μl D-MEM containing 10% FBS were seeded in each well of a 96-well plate overnight before the cytotoxicity assay. Test compounds were predissolved as 10× solution in 10% DMSO, 10% ethanol, 80% PBS and 10 μl of this 10× test compound solution were added to each well. After 24 hours incubation, medium containing test compound was removed by aspiration and 3 rinses of PBS. One hundred μl of serum medium was replenished before 20 μl methylthiazolyldiphenyl-tetrazolium bromide (MTT, 2.5 mg/mL) and 1 μl phenazine methosulfate (PMS, 50 μM) was added to each well before a 3-hour further incubation at 37°C. Optical density at 450 nm was measured with an ELISA reader. LC50 is defined as the concentration of compound that causes 50% drop of cell viability in this test.

[6] = test system: CHO cells; assay: in vitro; assay type: cell-based; settings: Chinese hamster, 24 h
Procedure: as §2

[7] = target: insulin receptor; settings: cited from earlier work
[8] = test system: db/db mice; set-up: method as in PMID 10320380, PMID 11237209; settings: cited from earlier work
[9] = test system: EGF receptor (ErbB1); set-up: method as in Zhang et al. [19]; settings: ref Zhang et al. [19]; cited from earlier work
[10] = side by side comparison, Fig. 3, read-out: EC50, insulin receptor tyrosine kinase activation
[11] = read-out: EC50, insulin receptor activation, reported previously

% activation, tyrosine kinase activity compared to 10 nM insulin stimulation (Study 1) [1]: 18.9%
Compound: O=C(O)c1oc(C(=O)c2c[nH]c3c(CCCO)cccc23)c(O)c1-c1c[nH]c2ccccc12 [Compound D-410637]

% activation, tyrosine kinase activity compared to 10 nM insulin stimulation (Study 1) [1]: 31.3%
Compound: O=C(O)c1oc(C(=O)c2c[nH]c3c(CCCCO)cccc23)c(O)c1-c1c[nH]c2ccccc12 [Compound D-410638]

insulin receptor activation efficacy relative to 10 nM insulin (range over Study 1 and 2) ([1]; 100 μM, both studies): 72-89%
Study 1, cpm, phosphoryl incorporation by tyrosine kinase activities [1]: 5590 cpm
% activation, tyrosine kinase activity compared to 10 nM insulin stimulation (Study 1) [1]: 89.4%
Study 2, cpm, phosphoryl incorporation by tyrosine kinase activities [1]: 1181 cpm
% activation, tyrosine kinase activity compared to 10 nM insulin stimulation (Study 2) [1]: 72.3%
EC50 [1, 10]: 33 µM and 32.9 µM
increase of IGF-1 receptor activity from the base line [2]: 60-70%
IC50 [3]: 1.8 µM
IC50 [4]: 26.5 µM
Compound: O=C(O)c1oc(C(=O)c2c[nH]c3c(CCCCCO)cccc23)c(O)c1-c1c[nH]c2ccccc12 [Compound D-410639]
CC50 at 24 h [5]: ~296 µM
CC50 [6]: 296 µM
fold less cytotoxic than DMAQ B1 [6]: 128 fold

Study 2, cpm, phosphoryl incorporation by tyrosine kinase activities [1]: 792.7 cpm
% activation, tyrosine kinase activity compared to 10 nM insulin stimulation (Study 2) [1]: 48.6%
Compound: CCCCCc1cccc2c(C(=O)c3oc(C(=O)O)c(-c4c[nH]c5ccccc45)c3O)c[nH]c12 [Compound D-410641]

Study 2, cpm, phosphoryl incorporation by tyrosine kinase activities [1]: 659.3 cpm
% activation, tyrosine kinase activity compared to 10 nM insulin stimulation (Study 2) [1]: 40.4%
Compound: O=C(O)c1oc(C(=O)c2c[nH]c3c(CCCC(CO)CO)cccc23)c(O)c1-c1c[nH]c2ccccc12 [Compound D-410642]

Study 2, cpm, phosphoryl incorporation by tyrosine kinase activities [1]: 799 cpm
% activation, tyrosine kinase activity compared to 10 nM insulin stimulation (Study 2) [1]: 48.9%
Compound: O=C(O)CCCCc1cccc2c(C(=O)c3oc(C(=O)O)c(-c4c[nH]c5ccccc45)c3O)c[nH]c12 [Compound D-410643]

Second part, the compound before the results:

Compound: O=C(O)c1sc(C(=O)c2c[nH]c3c(CCCCCO)cccc23)c(O)c1-c1c[nH]c2ccccc12 [Compound D-410640]
dose response of insulin receptor activation efficacy ([1]; normalized against 10 nM insulin, Fig. 4): levels off at 50 μM and tapers off by 100 μM

Compound: O=C(O)CCc1cccc2c(C(=O)c3oc(C(=O)O)c(-c4c[nH]c5ccccc45)c3O)c[nH]c12 [Compound D-410644]
Study 2, cpm, phosphoryl incorporation by tyrosine kinase activities [1]: 357.3 cpm
% activation, tyrosine kinase activity compared to 10 nM insulin stimulation (Study 2) [1]: 21.9%

Compound: C=CC(C)(C)c1[nH]c2ccccc2c1C1=C(O)C(=O)C(c2c[nH]c3c(CC=C(C)C)cccc23)=C(O)C1=O [DMAQ B1, Demethylasterriquinone B1]
CC50 at 24 h [5]: 2.3 µM
EC50 [7, 11]: 5 µM
effect on blood glucose [8]: lower blood glucose in db/db mice
activation potential on EGF receptor (ErbB1) [9]: minor activation potential

Compound: Cn1cc(C2=C(O)C(=O)C(c3ccccc3)=C(O)C2=O)c2ccccc21 [compound 2, phenylindolyldihydroxyquinone, reference compound]
EC50 [1, 10]: 39 µM and 38.9 µM
CC50 at 24 h [5]: 66.5 µM
EC50 [7, 11]: 0.3 µM

Compound: bovine insulin: bovine insulin, standard reference of the insulin receptor activation assay
Study 1, cpm, phosphoryl incorporation by tyrosine kinase activities [1]: 6250 cpm
Study 2, cpm, phosphoryl incorporation by tyrosine kinase activities [1]: 1632.5 cpm
EC50 ([1]; assay validation dose response curve, read-out: EC50 of bovine insulin, insulin receptor activation): ~0.0051 µM
EC50 ([7]; ref Liu et al. [21], read-out: EC50 of insulin, reported): 0.001 µM

Compound: diisoprenylindolylasterriquinone [Compound L-767827]
insulin receptor tyrosine kinase activation potential [7]: no insulin receptor tyrosine kinase activation potential
